Assay type in all cases: cell-based, human
Series [1] concerns Sap-1. In words: Chemical cross-linking of Sap-1 constructs in transfected COS7 cells (Western blot). The settings on record: for cross-linking of ECD-deleted Sap-1 / cross-linking of full-length (FL) Sap-1: anti-HA Western blot, FIG. 5. As for the experimental part:
COS 7 cells were transfected with the indicated construct and left for 24 hours at 37° C. Medium was changed and a solution of BS3 (Pierce) in PBS (2.5 mg/ml) or PBS alone was added, and left for 1 hour at 4° C. The cross-linking reaction was stopped by the addition of PBS that contained 0.15 M Tris pH 7.5 for 15 minutes at 4° C. Cells were finally lysed and the protein content was used for further analysis. The treatment with DSS (Pierce) was the same except that the product was dissolved in DMSO at a concentration of 25 mM (10×). It was then diluted in PBS and cells were incubated with 0.1×DMSO.
In general terms: In western blotting, separated proteins are transferred to a membrane and probed.

A further series concerns WiDr cells. In words: Streptolysin transfection of antisense ODN and BrdU proliferation assay. The settings on record: BrdU, streptolysin-O, ODN 1 mM final.
Series [2] has as its system Sap-1. Kind of series: DTT treatment of Sap-1 overexpressing COS7 cells, multimers on non-reducing gel. As for the experimental part:
Cells treated with DTT were serum-starved 8 hours after transfection (with PTP-Sap1 constructs or vector), and then incubated for 30 minutes in serum-free medium with various amount of DTT (Sigma). Before lysis in a buffer containing 150 mM iodoacetamide (“IODA” Sigma), cells were washed with ice cold PBS containing 50 mM iodoacetamide in order to block the free DTT. Samples were run under reducing and non-reducing conditions, with or without β-mercaptoethanol in the sample buffer, respectively.

Here are results for 4 compounds from patent US20060275299A1, “Use of protein tyrosine phosphatase inhibitors for prevention and/or treatment of cancer” (priority 2002, published 2006).

With `O=C(CCCCCCC(=O)ON1C(=O)CCC1=O)ON1C(=O)CCC1=O` [DSS, Di-Succinimidyl-Suberate], the “cross-linking of membrane-associated ECD-deleted Sap-1 lacking transmembrane domain (lck myristoylation peptide)” value in the series on Sap-1 [1] (FIG. 5B right panel) is “could not be cross-linked”. In addition, in the series with Sap-1 [1], the “cross-linking of ECD-deleted Sap-1” value is “but not ECD-deleted Sap-1” and the “cross-linking of full-length (FL) Sap-1” value is listed as “able to cross-link”.
“AS2: antisense ODN to PTP-SAP1 mRNA: TGACCCGGGTCCAAGGCCAT (antisense TGACCCGGGTCCAAGGCCAT; chemistry not given here)”: the “reduction of the proliferation” value with WiDr cells was found to be 20%.
On to `O=C(CCCCCCC(=O)ON1C(=O)CC(S(=O)(=O)O)C1=O)ON1C(=O)CC(S(=O)(=O)O)C1=O` (stereo not drawn) [BS3, Bis-Sulfosuccinimidyl-Suberate], for which, in the series with Sap-1 [1], the “cross-linking of ECD-deleted Sap-1” value was “no effect” and the “cross-linking of full-length (FL) Sap-1” value is listed as “induces the formation of a complex with high MW”. The “cross-linking of FLEX-Cterm Sap-1 construct” value with Sap-1 [1] (anti-Myc Western blot, FIG. 8A) was “efficiently cross-linked”.
`O[C@H](CS)[C@H](O)CS` (racemic) [DTT, Dithiothreitol]: the “reversibility of multimer disruption” value with Sap-1 [2] (30 minutes at 50 mM DTT, washout, 15 minutes recovery without DTT) is “fully restored formation of the multimers”. The “multimerized Sap-1 on non-reducing gel” value in the series on Sap-1 [2] (cells incubated 30 minutes in DTT, FIG. 6B) is on record as “dose-dependent decrease”.
